Assays:
[1] = target: T1, Drosophila sp. kinesin K401-BCCP-His6 (K401-biotin carboxyl carrier protein-His6) (Drosophila melanogaster, UniProt P17210); test: Michaelis-Menten kinetics of kinesin on poly(OH-EDOT) surface from microtubule gliding speeds at varied ATP concentration; assay type: biochemical
T1 construct: motor domain, neck linker and part of the coiled coil) of kinesin-1 heavy chain fused to biotin carboxyl carrier protein (BCCP, from E. coli in the known construct) and a His6 tag; microtubules and ATP present
Text: The protein ensemble (streptavidin, BSA, Drosophila kinesin K401-biotin carboxyl carrier protein (BCCP)-His6 and MTs) was deposited onto the conducting polymer surface (initially doped) using standard flow or droplet deposition methods. Flow cells were assembled using double-sided tape as a spacer creating a channel of approximate dimensions 5 mm×10 mm×0.04 mm. For the non-electrochemical assays, the poly(OH-EDOT)/PET substrate was placed on a glass slide with the conducting polymer layer down. The proteins were introduced using the standard capillary-flow technique. The buffer for all experiments was BRB80 (80 mM Pipes, 2 mM MgCl2, 1 mM EGTA, pH 6.95 with KOH). The flow cells were sequentially filled with a streptavidin solution (Streptomyces avidinii, Sigma-Aldrich, 1.0 mg/mL in BRB80, 10 min deposition time), BSA solution (Sigma-Aldrich, 1.0 mg/mL in BRB80, 10 min deposition time), standard kinesin solution (40 μg/mL kinesin K401-BCCP-His6 with 1 mM ATP in BRB80, 10 min deposition time), and finally a motility buffer with rhodamine-labeled microtubules (1-10 μm in length), containing 1 mM ATP and stabilized with 10 μM Taxol with oxygen scavenging additives (20 mM D-glucose, 20 μg/mL glucose oxidase, 8 μg/mL catalase, 0.2% 2-mercaptoethanol). Flow cells were sealed with immersion oil to prevent evaporation. The assays were performed at room temperature (21° C.).
It has recently been well established that as kinesin hydrolyzes a single ATP molecule, it induces an eight-nanometer movement of a microtubule. Therefore enzyme activity can be indirectly assayed by simply determining the average speed of a large population of microtubules. This was done using fluorescently-labeled microtubules, and their gliding speeds were then carefully measured using confocal microscopy. Microtubules were visualized on the conducting polymer using an Olympus Opelco BX51 fluorescence microscope and their speeds quantified using Metamorph image analysis software (Universal Imaging, Downingtown, Pa.). This assay method was then combined with a transparent electrochemical cell containing a poly(OH-EDOT) support. The poly(OH-EDOT) was ˜80% transparent in the visible range, allowing the microtubules to be easily seen and their speeds measured. […] The surface was then electrochemically doped by applying a bias of […] for 1 minute. The average microtubule speed was measured and found to be 0.40 μm/sec. The resulting ratio in speed differences (dedoped vs. doped surfaces) is 1.55, a striking exact correlation with the ATP hydrolysis ratios on the two surfaces. The surface was then cycled between the two states once more to give an overall cycling history of −1.0 V, +1.0 V, −1.0 V, +1.0 V with corresponding polymer states dedoped, doped, dedoped, doped (FIG. 3). For the second doping cycle the microtubule speeds were 0.63 (dedoped) and 0.40 (doped), giving a speed difference ratio of […].
At this point it was clear that the polymer surface was exerting a direct, reversible effect on the kinesin protein itself. The nature of this influence was examined by treating the charged species in the doped polymer form (the radical cation, or polaron) as an inhibitor, and quantified the enzyme kinetics in terms of Michaelis-Menten parameters. First, the surface concentration of the polarons was calculated using the established value of one polaron per four polymer repeat units for fully doped thiophene-type polymers. […] If one then encloses a kinesin molecule in a cube 30 nm per side and considers the polarons on the 30 nm×30 nm surface region to be distributed in the cube volume, an apparent local polaron concentration ([Iapp]) of 3.89 mM is obtained.
The Michaelis-Menten analysis assumes a kinetic model of the type shown in FIG. 5 (E=enzyme, ES=enzyme-substrate complex, P=product, kcat=catalytic turnover rate constant, Dstep=8 nm, Km=Michaelis constant). The kinetics of most enzymes, including kinesin, is accurately described with this model. […]

[2] = target: kinesin; settings: comparison value, source not given; read-out: inhibition constant Ki (other inhibitors); cited from earlier work
[3] = substrate ATP, doped vs dedoped surface

T1 sequence (P17210 1-401): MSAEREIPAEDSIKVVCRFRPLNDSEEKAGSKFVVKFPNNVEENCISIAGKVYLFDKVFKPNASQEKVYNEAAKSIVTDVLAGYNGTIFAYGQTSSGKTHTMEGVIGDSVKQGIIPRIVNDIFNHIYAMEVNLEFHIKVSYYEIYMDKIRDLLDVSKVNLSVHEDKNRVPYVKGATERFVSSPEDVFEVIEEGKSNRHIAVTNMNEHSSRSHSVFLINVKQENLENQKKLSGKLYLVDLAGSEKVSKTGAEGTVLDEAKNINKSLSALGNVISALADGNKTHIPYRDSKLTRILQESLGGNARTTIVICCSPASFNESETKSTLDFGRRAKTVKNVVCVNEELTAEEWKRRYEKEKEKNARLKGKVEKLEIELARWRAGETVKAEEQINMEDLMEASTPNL

SMILES | Speedmax dedoped ([1]; dedoped poly(OH-EDOT) surface, microtubule speed at infinite ATP concentration, 21° C., BRB80 pH 6.95) | Speedmax doped ([1]; doped poly(OH-EDOT) surface, microtubule speed at infinite ATP concentration, 21° C., BRB80 pH 6.95) | kcat dedoped ([1]; substrate ATP, dedoped poly(OH-EDOT) surface, 8 nm step per ATP hydrolyzed) | kcat doped ([1]; substrate ATP, doped poly(OH-EDOT) surface, 8 nm step per ATP hydrolyzed) | Km app doped lower than Km dedoped [1, 3] | kcat doped lower than kcat dedoped [1, 3] | Ki [2]
Nc1ncnc2c1ncn2[C@@H]1O[C@H](COP(=O)(O)OP(=O)(O)OP(=O)(O)O)[C@@H](O)[C@H]1O [ATP, adenosine triphosphate] | 0.943 μm/s ± 0.05 | 0.600 μm/s ± 0.03 | 118 sec^−1 ± 6 | 75.0 sec^−1 ± 3 | ca. 35% | ca. 36% | –
Nc1ncnc2c1ncn2[C@@H]1O[C@H](COP(=O)(O)OP(=O)(O)O)[C@@H](O)[C@H]1O [ADP, adenosine diphosphate] | – | – | – | – | – | – | 0.048 mM
O=P(O)(O)O [PO4^2−] | – | – | – | – | – | – | 9.3 mM
